Assay results reported in patent US11591319B2, “Small molecule inducers of autophagy” (Board of Regents, The University of Texas System, priority 2018, dated 2023).

How the values were obtained:
[1] = biological target: T1, Beclin 1/Bcl-2 interaction (Homo sapiens (Human), UniProt P10415); assay: Beclin 1/Bcl-2 AlphaLISA assay (dose-response); format: binding; conditions: positive control
Description: We also developed a high-throughput Beclin 1/Bcl-2 AlphaLISA assay to directly measure the in vitro interaction between Beclin 1 and Bcl-2. AlphaLISA is a bead-based proximity assay that is capable of measuring protein-protein interaction in homogeneous solution.^41 Oxygen singlet molecules are generated by Alpha donor beads upon irradiation at 680 nm and travel to acceptor beads in proximity. […] Thus, a measurable Alpha luminescence signal requires chemical energy transfer between the donor and acceptor beads, and a pair of interacting molecules immobilized on the beads stabilizes bead association to produce measurable Alpha signals.
We used purified recombinant Beclin 1 and Bcl-2 proteins for AlphaLISA, which were optimized for enhanced solubility and expression. Human Beclin 1 was expressed as a fusion protein with StrepII-SUMO at the N-terminus, and three residues on the aromatic finger of Beclin 1 were mutated (F359D/F360D/W361D) to improve solubility and protein stability.^42 These mutations are in the BARA domain, which is far from the BH3 motif recognized by Bcl-2. A recombinant Bcl-2-binding deficient mutant of Beclin 1 (StrepII-SUMO-Beclin 1^ΔBcl-2BD) was used as a negative control. […] For a normalization control, we included a parallel AlphaLISA assay with purified SUMO protein (with an N-terminal StrepII tag and a C-terminal 6xHis tag). The purpose of a normalization control is to eliminate inner filter (false-positive) hits that reduce luminescence signal by interfering with the AlphaLISA assay in ways that are unrelated to the Beclin 1/Bcl-2 interaction. With the normalization control, the interaction of Beclin 1 and Bcl-2 was measured as follows:
All AlphaLISA assays were performed in triplicate in a 384-well format with BB buffer (phosphate-buffered saline supplemented with 0.5% BSA and 1 mM DTT). For the Beclin 1/Bcl-2 AlphaLISA, purified StrepII-SUMO-Beclin 1 was incubated with Bcl-2-6xHis proteins at 300 nM and 60 nM, respectively. For internal control AlphaLISA assays, StrepII-SUMO-6xHis protein (internal control) was used at 20 nM. […] Following the initial incubation, Strep-Tactin Alpha donor (AS106D) and anti-6xHis AlphaLISA acceptor beads (AL128M) were added to a final concentration of 40 μg/mL each and incubated at room temperature in the dark for an additional 1 h. All samples were evaluated in triplicate. Alpha signals were measured by an Envision plate reader (Perkin Elmer). Beclin 1/Bcl-2 Alpha signal was normalized with internal control Alpha signal. The normalized value represents the binding activity of Beclin 1 and Bcl-2. The percent activity of a compound was calculated as the following formula: […]
Protein or peptide concentrations used in dose-response AlphaLISA experiments were as follows: Beclin1/Bcl-2—300 nM/60 nM; SUMO (internal control for Beclin 1/Bcl-2 AlphaLISA)—20 nM; Beclin 1 BH3/Bcl-2—1000 nM/60 nM; Bax BH3/Bcl-2—100 nM/20 nM; Biotin-6xHis (internal control for BH3/Bcl-2 AlphaLISA)—10
Target sequence in this assay (P10415 1-218): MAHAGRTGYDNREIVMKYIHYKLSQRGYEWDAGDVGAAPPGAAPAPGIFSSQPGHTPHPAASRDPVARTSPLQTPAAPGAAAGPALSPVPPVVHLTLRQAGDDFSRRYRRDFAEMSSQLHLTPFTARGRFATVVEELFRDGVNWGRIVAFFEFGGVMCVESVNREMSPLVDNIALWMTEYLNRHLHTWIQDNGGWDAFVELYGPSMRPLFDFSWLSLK

[2] = biological target: BH3 domain of Beclin 1/Bcl-2 (Homo sapiens (Human), UniProt P10415); assay: Beclin 1 BH3 peptide/Bcl-2 AlphaLISA; format: binding; conditions: AlphaLISA with BH3 peptide
Sequence of BH3 domain of Beclin 1/Bcl-2 (P10415 1-218): as above
Description: (§1) To assess selectivity for disruption of binding of the BH3 domain of Beclin 1 to Bcl-2 as compared to that of a pro-apoptotic Bcl-2 family member, we used an AlphaLISA with purified recombinant Bcl-2 and peptides spanning either the BH3 domain (amino acids 105-130) of Beclin 1 or the BH3 domain (amino acids 49-84) of Bax.
(§2) The Beclin 1 BH3 peptide consists of an N-terminally linked biotin, a YGGGGS linker, and […] (a.a. 105-130) derived from human Beclin 1. Bax BH3 peptide consists of an N-terminally linked biotin, a YGGGGS linker, and 36 amino acids (a.a. 49-84) derived from human Bax. Biotin-6xHis control peptide consists of an N-terminally linked biotin, a YGGGGS linker, and a 6xHis tag at C-terminus.
(§3) For dose-response AlphaLISA experiments, compounds were serially diluted (2-fold, 7 point) with DMSO and added to BB buffer containing purified recombinant proteins or biotinylated peptides at a final concentration range of 10 μM to 156 nM. Protein or peptide concentrations used in dose-response AlphaLISA experiments were as follows: Beclin1/Bcl-2—300 nM/60 nM; SUMO (internal control for Beclin 1/Bcl-2 AlphaLISA)—20 nM; Beclin 1 BH3/Bcl-2—1000 nM/60 nM; Bax BH3/Bcl-2—100 nM/20 nM; Biotin-6xHis (internal control for BH3/Bcl-2 AlphaLISA)—10

BH3 domain of Bax/Bcl-2 = BH3 domain of Bax/Bcl-2 (Homo sapiens (Human), UniProt P10415); assay: Bax BH3 peptide/Bcl-2 AlphaLISA; format: binding; conditions: AlphaLISA with BH3 peptide
Sequence of BH3 domain of Bax/Bcl-2 (P10415 1-218): as above
Description: as §1, §2, §3

[3] = biological target: Bim/Myc-Bcl-2 interaction (Homo sapiens (Human), UniProt P10415); assay: Co-immunoprecipitation of Bim with Myc-Bcl-2 in HeLa cells; format: cell-based; conditions: 12 h treatment
Sequence of Bim/Myc-Bcl-2 interaction (P10415 whole entry): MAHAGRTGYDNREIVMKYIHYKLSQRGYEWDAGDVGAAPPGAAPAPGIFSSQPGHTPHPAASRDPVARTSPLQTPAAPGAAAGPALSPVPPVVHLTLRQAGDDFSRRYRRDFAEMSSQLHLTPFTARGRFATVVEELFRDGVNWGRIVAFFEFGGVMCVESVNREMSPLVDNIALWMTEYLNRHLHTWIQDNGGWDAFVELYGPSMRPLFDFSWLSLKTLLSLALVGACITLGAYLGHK
Description: For the two compounds for which we had sufficient supply for large-scale tissue culture experiments (SW063058 and SW076956), we examined their effects on Beclin 1, Bax, and Bim co-immunoprecipitation with Bcl-2.

[4] = biological target: T1, Beclin 1/Bcl-2 interaction; assay: Beclin 1/Bcl-2 split-luciferase assay in HeLa cells; format: cell-based
Target sequence in this assay (P10415 whole entry): as above
Description: The split-luciferase approach relies on the reconstitution of two fragments of firefly luciferase, NLuc (amino acids 2-416) and CLuc (amino acids 398-550) expressed with proteins of interest as fusion partners. Upon the binding of interacting partners, two non-functional fragments of the luciferase are brought into proximity, forming an active luciferase protein. To measure Beclin 1/Bcl-2 interaction with the split-luciferase assay, we created HeLa cell lines expressing N-terminal NLuc-tagged Beclin 1 (NLuc-Beclin 1) and CLuc-tagged Bcl-2 (CLuc-Bcl-2) as split-luciferase reporters. […] Renilla luciferase was constitutively expressed as an internal control. The interaction of Beclin 1/Bcl-2 was measured as relative luminescence units (RLU), which was the calculated ratio of split-luciferase and Renilla luciferase signals: […]
DMSO (neutral control), ABT-737 (positive control), or the library compounds were added to a final concentration of 5 μM and incubated at 37° C. […] After 5 h of incubation, the medium was removed by centrifugation and the activity of Beclin 1/Bcl-2 split-luciferase reporters was measured with Dual-Glo® Luciferase Assay System (Promega). […] Ten microliters of 1× RL buffer (Stop & Glo Reagent) was then added to the sample, the sample was incubated at room temperature for 10 min, and the activity of Renilla luciferase was measured again. […]

[5] = system: HeLa cells stably expressing GFP-LC3; assay: GFP-LC3 puncta quantitation (autophagy); format: cell-based
Description: We used well-established assays to assess their autophagic activity,^45 including (i) quantitation of GFP-LC3 puncta (which label autophagosomes) in the presence and absence of the lysosomal inhibitor, bafilomycin A1 (Baf A1), and (ii) western blot analysis of the conversion of LC3-I to the lipidated, autophagosomal-associated protein, LC3-II in the presence and absence of Baf A1. […] Shorter durations of lower concentrations of compounds (10 μM) also produced similar results. […] Thus, these compounds induce autophagic flux in HeLa cells.
(§4) We assessed whether the induction of autophagy by SW063058 and SW076956 requires Beclin 1 and Bcl-2 using siRNA to knockdown each protein, respectively, in HeLa, cells.

HeLa cells [6] = assay: p62 levels after Beclin 1 or Bcl-2 siRNA knockdown; format: cell-based; conditions: cells with either Beclin 1 or Bcl-2 knockdown
Description: as §4

HeLa cells [7] = assay: CellTiter-Glo cytotoxicity assay; format: cell-based; conditions: 20 μM
[8] = system: HeLa cells that overexpress Bcl-2; assay: CellTiter-Glo cell death in Bcl-2 overexpressing cells; format: cell-based
PARP = PARP cleavage (apoptosis); format: cell-based; conditions: 10 or 20 μM

Compound: CN(C)CC[C@H](CSc1ccccc1)Nc1ccc(S(=O)(=O)NC(=O)c2ccc(N3CCN(Cc4ccccc4-c4ccc(Cl)cc4)CC3)cc2)cc1[N+](=O)[O-] [ABT-737]
- inhibition of Beclin 1/Bcl-2 Alpha signal [1]: inhibited in a dose-dependent manner
- binding of the BH3 domain of Beclin 1 to Bcl-2 [2]: nanomolar efficiency
- binding of the BH3 domain of Bax to Bcl-2 (BH3 domain of Bax/Bcl-2): nanomolar efficiency
- Bim/Myc-Bcl-2 interaction (co-immunoprecipitation) [3]: disrupt co-immunoprecipitation
- split-luciferase luminescence activity [4]: inhibited in a dose-dependent manner
- GFP-LC3 puncta in Bcl-2 knockdown cells ([5]; Bcl-2 siRNA): no further increase in GFP-LC3 puncta
- GFP-LC3 puncta in Beclin 1 knockdown cells ([5]; Beclin 1 siRNA): no further increase in GFP-LC3 puncta
- p62 levels (HeLa cells [6]): failed to alter p62 levels
- cytotoxicity (CellTiter-Glo) (HeLa cells [7]): mild cytotoxicity
- cell death in HeLa cells that overexpress Bcl-2 [8]: more pronounced dose-dependent increase in cell death
- PARP cleavage (PARP): dose-dependent increase in PARP cleavage
